US20240390369A1, “METHODS FOR DETERMINING RESPONSIVENESS TO TYK2 INHIBITORS” (Bristol-Myers Squibb Company, priority 2021, published 2024)

Tested on: patients with psoriatic arthritis
Assay: Phase 2 trial in psoriatic arthritis: ACR20 response at week 16
Type: in vivo, human
Settings: for ACR20 response rate over time: placebo, sixteen-week treatment period; for Odds Ratio, ACR20 response status / Odds Ratio for ACR20 response: All patients
Protocol: In a double-blind Phase 2 trial, 203 patients with psoriatic arthritis were randomized into three groups: deucravacitinib 6 mg once daily (N=70), deucravacitinib 12 mg once daily (N=67), or placebo (N=66). All subjects had active psoriatic arthritis according to the Classification Criteria for Psoriatic Arthritis (CASPAR); for active disease, these criteria required ≥3 tender joint count, ≥3 swollen joint count, and a C-reactive protein level above 3 mg/L. Other inclusion criteria included the following: presence of at least one plaque psoriasis lesion, and prior treatment failure with a non-biologic disease modifying anti-rheumatic drug, a non-steroidal anti-inflammatory drug, or a steroid. With respect to treatment history, approximately 70% of subjects had not received prior treatment with a biologic and were biologic naïve, while up to 30% of subjects had failed or had been intolerant to one TNF-inhibitor (TNF=Tumor necrosis factor, also known as TNFα). Randomization was stratified by prior TNF-inhibitor use (experienced/naïve) and body weight (<90 kg and ≥90 kg).
Clinical measures included the Psoriasis […] (PASI) score for skin psoriasis, American College of Rheumatology 20 (ACR20) response, Psoriatic Arthritis Disease Activity Score (PASDAS), Health Assessment Questionnaire-Disability Index (HAQ-DI), and Disease Activity Score 28 CRP (DAS28). To evaluate the predictive value of different protein measurements for the clinical response to deucravacitinib, baseline protein concentrations for responders and non-responders, as defined by ACR20 or PASI75 at week 16, were compared for each arm (placebo, 6 mg deucravacitinib once-daily, and 12 mg deucravacitinib once-daily).
Boxplots for baseline protein level by response were generated with a horizontal line indicating the median protein level at baseline. For each treatment arm, a two-sample t-test was performed to test whether mean baseline serum protein level was different in responders versus non-responders. A Wilcoxon rank sum test (Mann-Whitney U test) was also performed to evaluate the difference in median serum protein level between responders and non-responders. Further, barplots of ACR20 and PASI75 response rate at week 16 for each treatment arm were generated for all subjects (protein level high and protein level low subjects, dichotomized according to median baseline level). Line plots of ACR20 and PASI75 response rate over time for each treatment arm were generated for protein level high and protein level low groups. Logistic regression models were also fit to evaluate associations between baseline protein levels and clinical outcome.
For certain analyses described herein, patients were dichotomized by median values (e.g., of the proteins listed above or other measures) into “high” and “low” groups, such that the high group had values above the median and the low group had values less than or equal to the median.
In addition, logistic regression models were fit for response measures ACR20 and PASI75, to generate the odds ratio of each of the deucravacitinib treatment arms versus placebo, in BD2-high and BD2-low groups. The following logistic regression models were used: • For ACR20 response status: ACR20 (Y/N)=treatment arm+BD2 group+treatment arm*BD2 group+TNF-inhibitor use+baseline weight (continuous). • For PASI75 response status: PASI75 (Y/N)=treatment arm+BD2 group+treatment arm*BD2 group+TNF-inhibitor use+baseline weight (continuous). […] FIGS. 26-31 are forest plots summarizing the logistic regression results of these models (for BD2 and other biomarkers described herein); each “N,” for “Placebo” and “Deucrava,” represents the number of responders in that group. […]

[1] = 6 mg QD, Above median baseline CRP level
[2] = 6 mg QD, Below median baseline CRP level
[3] = 12 mg QD, Above median baseline CRP level
[4] = 12 mg QD, Below median baseline CRP level

For `[2H]C([2H])([2H])NC(=O)c1nnc(NC(=O)C2CC2)cc1Nc1cccc(-c2ncn(C)n2)c1OC` [deucravacitinib, 6-(cyclopropanecarboxamido)-4-((2-methoxy-3-(1-methyl-1H-1,2,4-triazol-3-yl)phenyl)amino)-N-(methyl-d3)pyridazine-3-carboxamide], the “Interaction Term for ACR20 response (ratio of odds ratios)” value (6 mg QD vs placebo: BD2 high versus BD2 low, week 16) was 3.16, the “Interaction Term: treatment arm*CRP group, ACR20” value (6 mg QD vs placebo: CRP high versus CRP low) was 0.786 and the “Interaction Term: treatment arm*CRP group, ACR20” value (6 mg QD vs placebo: CRP-high versus CRP-low, adjusted for baseline DAS28) was 0.788. The “Interaction Term for ACR20 response (ratio of odds ratios)” value (6 mg QD vs placebo: IL-17A high versus IL-17A low, week 16) was 3.10, the “Interaction Term for ACR20 response (ratio of odds ratios)” value (6 mg QD vs placebo: IL-19 high versus IL-19 low, week 16) was 3.33 and the “ACR20 response rate over time” value (6 mg QD, 12 mg QD, BD2-high and BD2-low groups (FIG. 10)) was “higher ACR20 response rates to deucravacitinib over time, compared to the response rate in the placebo arm, were observed in the BD2-high group but not in the BD2-low group”. The “ACR20 response rate over time” value (6 mg QD, 12 mg QD, CRP-high and CRP-low groups (FIG. 41)) was “higher response rates than the placebo arm”, the “ACR20 response rate over time” value (6 mg QD, 12 mg QD, IL-17A-high and IL-17A-low groups (FIG. 24)) was “higher ACR20 response rates over time were observed in the deucravacitinib treatment arms compared to placebo in IL-17A-high but not in IL-17A-low groups” and the “ACR20 response rate over time” value (6 mg QD, 12 mg QD, IL-19-high and IL-19-low groups (FIG. 17)) was “higher ACR20 response rates to deucravacitinib over time compared to placebo were observed in IL-19-high but not in IL-19-low groups”. The Number of subjects (6 mg QD, ACR20 non-responder at week 16, above median baseline BD2 level) was 20, the Number of subjects (6 mg QD, ACR20 non-responder at week 16, above median baseline IL-17A level) was 14 and the Number of subjects (6 mg QD, ACR20 non-responder at week 16, above median baseline IL-19 level) was 17. It also gave a Number of subjects (6 mg QD, ACR20 non-responder at week 16, below median baseline BD2 level) of 14, a Number of subjects (6 mg QD, ACR20 non-responder at week 16, below median baseline IL-17A level) of 19 and a Number of subjects (6 mg QD, ACR20 non-responder at week 16, below median baseline IL-19 level) of 16. The Number of subjects (6 mg QD, ACR20 responder at week 16, above median baseline IL-17A level) was 21, the Number of subjects (6 mg QD, ACR20 responder at week 16, above median baseline IL-19 level) was 21 and the Number of subjects (6 mg QD, ACR20 responder at week 16, below median baseline BD2 level) was 7. For the same molecule, the Number of subjects (6 mg QD, ACR20 responder at week 16, below median baseline IL-17A level) was 16, the Number of subjects (6 mg QD, ACR20 responder at week 16, below median baseline IL-19 level) was 16 and the “Number of subjects, ACR20 Non-responder at week 16” value [1] was 17. For the same molecule, the “Number of subjects, ACR20 Responder at week 16” value [1] was 19, the “Number of subjects, ACR20 Non-responder at week 16” value [2] was 16 and the “Number of subjects, ACR20 Responder at week 16” value [2] was 18. For the same molecule, the “Interaction Term for ACR20 response (ratio of odds ratios)” value (12 mg QD vs placebo: BD2 high versus BD2 low, week 16) was 3.40, the “Interaction Term: treatment arm*CRP group, ACR20” value (12 mg QD vs placebo: CRP high versus CRP low) was 1.921 and the “Interaction Term: treatment arm*CRP group, ACR20” value (12 mg QD vs placebo: CRP-high versus CRP-low, adjusted for baseline DAS28) was 1.930. The “Interaction Term for ACR20 response (ratio of odds ratios)” value (12 mg QD vs placebo: IL-17A high versus IL-17A low, week 16) was 2.78, the “Interaction Term for ACR20 response (ratio of odds ratios)” value (12 mg QD vs placebo: IL-19 high versus IL-19 low, week 16) was 7.35 and the Number of subjects (12 mg QD, ACR20 non-responder at week 16, above median baseline BD2 level) was 10. For the same molecule, the Number of subjects (12 mg QD, ACR20 non-responder at week 16, above median baseline IL-19 level) was 7, the Number of subjects (12 mg QD, ACR20 non-responder at week 16, below median baseline BD2 level) was 11 and the Number of subjects (12 mg QD, ACR20 non-responder at week 16, below median baseline IL-17A level) was 15. It also gave a Number of subjects (12 mg QD, ACR20 non-responder at week 16, below median baseline IL-19 level) of 17, a Number of subjects (12 mg QD, ACR20 responder at week 16, above median baseline BD2 level) of 20 and a Number of subjects (12 mg QD, ACR20 responder at week 16, above median baseline IL-19 level) of 21. For the same molecule, the Number of subjects (12 mg QD, ACR20 responder at week 16, below median baseline BD2 level) was 10, the Number of subjects (12 mg QD, ACR20 responder at week 16, below median baseline IL-19 level) was 20 and the “Number of subjects, ACR20 Non-responder at week 16” value [3] was 9. The “Number of subjects, ACR20 Responder at week 16” value [3] was 24, the “Number of subjects, ACR20 Non-responder at week 16” value [4] was 16 and the “Number of subjects, ACR20 Responder at week 16” value [4] was 18. The “Odds Ratio, ACR20 response status” value (6 mg QD vs placebo, not adjusted for baseline disease activity) was 2.456, the “Odds Ratio for ACR20 response” value (6 mg QD vs placebo, week 16) was 2.46 and the “Odds Ratio, ACR20 response status” value (6 mg QD vs placebo, week 16, adjusted for baseline DAS28) was 2.443. For the same molecule, the “Odds Ratio, ACR20 response status” value (12 mg QD vs placebo, not adjusted for baseline disease activity) was 3.609, the “Odds Ratio for ACR20 response” value (12 mg QD vs placebo, week 16) was 3.61 and the “Odds Ratio, ACR20 response status” value (12 mg QD vs placebo, week 16, adjusted for baseline DAS28) was 3.618. The “Odds Ratio for ACR20 response” value (deucravacitinib treatment arms combined vs placebo, week 16) was 2.961 and the “Odds Ratio, ACR20 response status” value (treatment arms combined vs placebo) was 2.961.
